Counter-ions that a name gives are not always drawn. Like-named read-outs stand apart in the source and are kept apart here.
How the values were obtained:
[1] = system: PD1 signal sequence plus 10 amino acids fused to Gaussia Luciferase (PD1-ss+10aa/Gaussia Luciferase); assay: Dox Induced PD1-ss-Gluc Assay; type: cell-based; conditions: 24 hr, 293FRT/TO; read-out: 24 hr Dox Inducible PD1ssGluc 293FRT/TO: Mean IC50
Excerpt: FIp-In 293 T-REx™ cells were transfected with pcDNA™5/FRT/TO plasmid inserted with cDNA encoding Gaussia Luciferase fused to the 3′ end of cDNA encoding PD1 signal sequence plus 10 amino acids (N-[…]-C) (SEQ ID NO: 1). Transfected cells were selected for resistance to the selectable markers Hygromycin and Blasticidin to create a stable cell line that contained the PD1-ss+10aa/Gaussia Luciferase cDNA insert whose expression was regulated under the T-REx™ system. The day before assay, cells were trypsinized and plated in 384-well tissue culture plates. The next day, compound dilutions in DMSO/media containing doxycycline were added to the wells and incubated at 37° C., 5% CO2.
(§1) For chemical structures that include one or more stereoisomers, but are illustrated without indicating stereochemistry, the assay data refers to a mixture of stereoisomers.

[2] = system: full length TNFα (amino acids 1-233) fused to Gaussia Luciferase; assay: Dox Induced TNFα-FL-Gluc Assay; type: cell-based; conditions: 24 hr, 293FRT/TO; read-out: 24 hr Dox Inducible TNFaFLGluc 293FRT/TO: Mean IC50
Excerpt: FIp-In 293 T-REx™ cells were transfected with pcDNA™5/FRT/TO plasmid inserted with cDNA encoding Gaussia Luciferase fused to the 3′ end of cDNA encoding full length TNFα (amino acids 1-233). Transfected cells were selected for resistance to the selectable markers Hygromycin and Blasticidin to create a stable cell line that contained the TNFα-FL/Gaussia Luciferase cDNA insert whose expression was regulated under the T-REx™ system. The day before assay, cells were trypsinized and plated in 384-well tissue culture plates. The next day, compound dilutions in DMSO/media containing doxycycline were added to the wells and incubated at 37° C., 5% CO2.
as §1

[3] = system: multiple myeloma cell line NCl-H929; assay: H929 Cell Viability Assay; type: cell-based, human
Method: The human multiple myeloma cell line NCl-H929 was cultured in Advanced RPMI 1640 media (Gibco®) supplemented with 6% fetal bovine serum, 2 mM Glutamine, and 1× Penicillin/Streptomycin. On the day of assay, cells were resuspended in RPMI 1640 media supplemented with 10% fetal bovine serum, 2 mM Glutamine, and 1× Penicillin/Streptmycin and plated in 384-well tissue culture plates and treated with compound dilutions in DMSO/media. Plates were incubated at 37° C., 5% CO2 for 48 hours. After 48 hours, Celltiter-Glo® (Promega) was added to each well and luciferase signal was quantified using Tecan Infinite M1000 Pro for cell viability determination.
as §1

[4] = system: multiple myeloma cell line U266B1; assay: U266 Cell Viability Assay; type: cell-based, human; conditions: 48 hr
Method: The human multiple myeloma cell line U266B1 was cultured in RPMI 1640 media supplemented with 10% fetal bovine serum, 2 mM Glutamine, and 1× Penicillin/Streptomycin. Cells were plated in 384-well tissue culture plates and treated with compound dilutions in DMSO/media. Plates were incubated at 37° C., 5% CO2 for 48 hours. After 48 hours, Celltiter-Glo® (Promega) was added to each well and luciferase signal was quantified using Tecan Infinite M1000 Pro for cell viability determination.
For chemical structures that include one or more stereoisomers, but are illustrated without indicating stereochemistry, the assay data refers to a mixture of stereoisomers

[5] = In Vitro Microsome Stability Assay (human); type: in vitro ADME; conditions: human, 30 min, NADPH
Method: (§2) Potassium phosphate (423 μL of a 0.1 M solution) was added to 8-strip deep well tubes followed by human, mouse, rat, or monkey microsomes (25 μL of a 20 mg/mL solution). The tubes were then placed on ice and the test article (2 μL of a 0.25 mM solution in DMSO) was added. The mixture was preincubated at 37° C. for 3 to 5 minutes (shaking at 150 rpm) then the reaction was initiated by adding 50 μL NADPH. An aliquot of samples (100 μL) were collected at 0 and 30 min and 200 μL of an acetonitrile mixture containing IS (compound 914) was added to quench the reaction. After centrifuging for 10 min at 4000 rpm, a mixed solution of the 20 μL of the supernatant (20 μL) plus 100 μL ACN/H2O (1:1) were injected for LC-MS/MS analysis. Liver microsome stability is assessed by the % remaining of compound at 30 min which is calculated using the following equation: [(AUCanalyteT=30/AUCIS)/(AUCanalyteT=0/AUCIS)]*100
as §1

[6] = In Vitro Microsome Stability Assay (mouse); type: in vitro ADME; conditions: mouse, 30 min, NADPH
Method: as §2, §1

[7] = In Vitro Microsome Stability Assay (rat); type: in vitro ADME; conditions: rat, 30 min, NADPH
Method: as §2, §1

[8] = In Vitro Microsome Stability Assay (monkey); type: in vitro ADME; conditions: monkey, 30 min, NADPH
Method: as §2, §1

[9] = 48 hr, H929, read-out: 48 hr H929 Viability Celltiter-Glo: Mean EC50
[10] = Homo sapiens, U-266, U266, read-out: 48 hr U266 Viability Celltiter-Glo: Mean EC50
[11] = Homo sapiens, NCI-H929, 48 h, H929, read-out: 48 hr H929 Viability Celltiter-Glo: Mean EC50

SMILES	IC50 [1] [µM]	IC50 [2] [µM]	EC50 [3, 9] [µM]	EC50 [4, 10] [µM]	Liver Microsome Stability-% Left after 30 min w/ NADPH (%) Human [5] [%]	Liver Microsome Stability-% Left after 30 min w/ NADPH (%) Mouse [6] [%]	Liver Microsome Stability-% Left after 30 min w/ NADPH (%) Rat [7] [%]	Liver Microsome Stability-% Left after 30 min w/ NADPH (%) Monkey [8] [%]	EC50 [3, 11] [µM]	EC50 ([4]; U266, read-out: 48 hr U266 Viability Celltiter-Glo: Mean EC50) [µM]	EC50 ([3]; Homo sapiens, NCI-H929, 48 h, H929, Celltiter-Glo) [µM]	EC50 ([4]; Homo sapiens, U-266, U266, Celltiter-Glo) [µM]
C=C1CN(S(=O)(=O)c2ccc(C)cc2)CCCN(CC2CCCCC2)CCCN(S(=O)(=O)C2CCCCC2)C1 [A5]	0.651	> 25	8.43	> 25	0.24	0.27	0.24	0.31				
C=C1CN(S(=O)(=O)CC)CCCN(CC2CCCCC2)CCCN(S(=O)(=O)c2ccc(C)cc2)C1 [A6, 9-(cyclohexylmethyl)-1-(ethanesulfonyl)-5-(4-methylbenzenesulfonyl)-3-methylidene-1,5,9-triazacyclododecane]	4.75	> 25		> 25	0.53	0.12	0.17	0.44	24.1			
C=C1CN(S(=O)(=O)c2ccc(C)cc2)CCCN(CC2CCCCC2)CCCN(S(=O)(=O)C(C)C)C1 [A7, 9-(cyclohexylmethyl)-1-(4-methylbenzenesulfonyl)-3-methylidene-5-(propane-2-sulfonyl)-1,5,9-triazacyclododecane]	2.31	> 25		> 25	0.29	0.17	0.23	0.99	22.4			
C=C1CN(S(=O)(=O)c2ccc(C)cc2)CCCN(CC2CCCCC2)CCCN(S(=O)(=O)C2CCCCC2)C1 [A8, 1-(cyclohexanesulfonyl)-9-(cyclohexylmethyl)-5-(4-methylbenzenesulfonyl)-3-methylidene-1,5,9-triazacyclododecane]	2.68	> 25	> 25		0.09	0.17	0.61	0.19		> 25		
C=C1CN(S(=O)(=O)c2ccc(C)cc2)CCCN(CC2CCOCC2)CCCN(S(=O)(=O)c2ccc(N(C)C)cc2)C1 [A9, N,N-dimethyl-4-{[5-(4-methylbenzenesulfonyl)-3-methylidene-9-[(oxan-4-yl)methyl]-1,5,9-triazacyclododecan-1-yl]sulfonyl}aniline]	1.11	> 25		> 25	0.09	0.34	0.14	0.66	> 25			
C=C1CN(S(=O)(=O)c2ccc(C)cc2)CCCN(CC2CCC(C)(C)CC2)CCCN(S(=O)(=O)c2ccc(N(C)C)cc2)C1 [A10, 4-((9-((4,4-dimethylcyclohexyl)methyl)-3-methylene-5-tosyl-1,5,9-triazacyclododecan-1-yl)sulfonyl)-N,N-dimethylaniline hydrochloride]	0.123	4.69		> 25	0.77	0.2	8.85	0.14	2.86			
C=C1CN(S(=O)(=O)c2ccc(C)cc2)CCCN(C(=O)OCCC)CCCN(S(=O)(=O)c2ccc(N(C)C)cc2)C1 [A12, propyl 5-((4-(dimethylamino)phenyl)sulfonyl)-7-methylene-9-tosyl-1,5,9-triazacyclododecane-1-carboxylate]	0.858	> 25		> 25	0.11	0.1	0.07	0.22	> 25			
C=C1CN(S(=O)(=O)c2ccc(N(C)C)cc2)CCCN(CC2CCCCC2)CCCN(S(=O)(=O)N2CCCCC2)C1 [A13, 4-{[9-(cyclohexylmethyl)-3-methylidene-5-(piperidine-1-sulfonyl)-1,5,9-triazacyclododecan-1-yl]sulfonyl}-N,N-dimethylaniline]	0.025	1.47		> 25	0.65	0.04	0.1	0.1	0.987			
C=C1CN(S(=O)(=O)c2ccc(N(C)C)cc2)CCCN(CC2CCCCC2)CCCN(S(=O)(=O)N(C)C)C1 [A16, 9-(cyclohexylmethyl)-5-[4-(dimethylamino)benzenesulfonyl]-N,N-dimethyl-3-methylidene-1,5,9-triazacyclododecane-1-sulfonamide]	0.108	6.34		> 25	0.11	2.09	2.62	41.1	4.98			
CN(C)c1ccc(S(=O)(=O)N2CCCN(CC3CCCCC3)CCCN(S(=O)(=O)N3CCC(O)CC3)CC3(CC3)C2)cc1 [A28, 1-{[9-(cyclohexylmethyl)-13-[4-(dimethylamino)benzenesulfonyl]-5,9,13-triazaspiro[2.11]tetradecan-5-yl]sulfonyl}piperidin-4-ol]	5.25	> 25		> 25		0.06	0.14	0.06	10.4			
COc1ccc(F)cc1N1CCN(S(=O)(=O)N2CCCN(CC3CCCCC3)CCCN(S(=O)(=O)c3ccc(N(C)C)cc3)C[C@H](C)C2)CC1 [A176]											3.11	> 25

— patent US11578055B2, “Triazacyclododecansulfonamide (“TCD”)-based protein secretion inhibitors” (KEZAR LIFE SCIENCES, priority 2018, dated 2023)
